# Measurements as given in US9302999B2, “Substituted triazoles as herbicides” (E. I. DU PONT DE NEMOURS AND COMPANY, priority 2012, dated 2016).
# Where two headings read alike, the source gives them in different places.
# Columns and labels:
# Format in all cases: in vivo
# wild oat (Avena fatua) = experiment: Test C pre-/postemergence: wild oat
# In short: (§1)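 Preemergence on seeds in loam/sand, postemergence on 2–18 cm (1–4-leaf) plants in peat-based medium; compounds in non-phytotoxic solvent with surfactant. After 13–15 days in greenhouse, visual rating versus controls, 0 (no effect) to 100 (complete control).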
# [1] = test system: barnyardgrass (Echinochloa crus-galli); experiment: Test A pre-/postemergence: barnyardgrass; settings: Echinochloa crus-galli, 240 h; for pest or weed control at 125 g/ha: 125 g ai/ha; for pest or weed control at 500 g/ha: 500 g ai/ha
# In short: (§2)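 Pre: directed soil spray after planting in loam + sand. Post: same formulation (non-phytotoxic solvent + surfactant) on 1–2-leaf plants, 2–10 cm. Greenhouse ~10 d; visual injury 0–100 vs untreated.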
# [2] = test system: crabgrass, large (large crabgrass, Digitaria sanguinalis); experiment: Test A pre-/postemergence: crabgrass, large; settings: Digitaria sanguinalis, 240 h; for pest or weed control at 125 g/ha: 125 g ai/ha; for pest or weed control at 500 g/ha: 500 g ai/ha
# In short: as §2
# soybean (Glycine max) = experiment: Test C pre-/postemergence: soybean
# In short: as §1
# [3] = test system: blackgrass (Alopecurus myosuroides); experiment: Test C pre-/postemergence: blackgrass
# In short: as §1
# [4] = test system: nutsedge, yellow (yellow nutsedge, Cyperus esculentus); experiment: Test C pre-/postemergence: nutsedge, yellow
# In short: as §1
# [5] = test system: winter wheat (Triticum aestivum); experiment: Test C pre-/postemergence: winter wheat
# In short: as §1
# [6] = test system: ragweed (common ragweed, Ambrosia elation); experiment: Test C pre-/postemergence: ragweed
# In short: as §1
# [7] = test system: johnsongrass (Sorghum halepense); experiment: Test C pre-/postemergence: johnsongrass
# In short: as §1
# [8] = test system: foxtail, giant (giant foxtail, Setaria faberii); experiment: Test A pre-/postemergence: foxtail, giant; settings: Setaria faberi, 240 h; for pest or weed control at 125 g/ha: 125 g ai/ha; for pest or weed control at 500 g/ha: 500 g ai/ha
# In short: as §2
# [9] = test system: large crabgrass (Digitaria sanguinalis); experiment: Test C pre-/postemergence: large crabgrass
# In short: as §1
# corn (Zea mays) = experiment: Test C pre-/postemergence: corn
# In short: as §1
# [10] = Postemergence, 31 g ai/ha, scale 0 to 100 (0 no effect, 100 complete control)
# [11] = Postemergence, 62 g ai/ha, scale 0 to 100 (0 no effect, 100 complete control)
# [12] = Postemergence, 125 g ai/ha, scale 0 to 100, 0 no effect, 100 complete control
# [13] = Postemergence, 250 g ai/ha, scale 0 to 100
# [14] = Preemergence, 31 g ai/ha, scale of 0 to 100, 0 is no effect, 100 is complete control
# [15] = Preemergence, 62 g ai/ha, scale of 0 to 100, 0 is no effect, 100 is complete control
# [16] = Preemergence, 125 g ai/ha, scale 0 to 100, 0 no effect, 100 complete control
# [17] = Preemergence, 250 g ai/ha, scale 0 to 100, 0 no effect, 100 complete control
# [18] = Preemergence, 62 g ai/ha, scale 0 to 100, 0 no effect, 100 complete control
smiles,measurement,setting,value
"Cc1nn(-c2ccc(F)cc2)nc1Oc1ccnc(C(F)(F)F)c1 [Compound 129, 4-[[2-(4-fluorophenyl)-5-methyl-2H-1,2,3-triazol-4-yl]oxy]-2-(trifluoromethyl)pyridine]","Plant response rating, Oat, Wild",wild oat (Avena fatua); [10],20
same,"Plant response rating, Oat, Wild",wild oat (Avena fatua); [11],35
same,"Plant response rating, Oat, Wild",wild oat (Avena fatua); [12],50
same,"Plant response rating, Oat, Wild",wild oat (Avena fatua); [13],80
same,"Plant response rating, Oat, Wild",wild oat (Avena fatua); [14],40
same,"Plant response rating, Oat, Wild",wild oat (Avena fatua); [15],85
same,"Plant response rating, Oat, Wild",wild oat (Avena fatua); [16],95
same,"Plant response rating, Oat, Wild",wild oat (Avena fatua); [17],95
same,pest or weed control at 125 g/ha,"[1]; post-emergence, Postemergence, 0 to 100 scale, 0 is no effect, 100 is complete control, read-out: Barnyardgrass plant response rating",90%
same,pest or weed control at 500 g/ha,"[1]; post-emergence, Postemergence, visual rating on 0 to 100 scale (0 no effect, 100 complete control), approximately ten days, read-out: Barnyardgrass plant response rating",90%
same,pest or weed control at 125 g/ha,"[1]; pre-emergence, Preemergence, 0 to 100 scale where 0 is no effect and 100 is complete control, read-out: Plant response rating, Barnyardgrass",100%
same,pest or weed control at 500 g/ha,"[1]; pre-emergence, Preemergence, 0 to 100 scale (0 no effect, 100 complete control), read-out: Plant response rating, Barnyardgrass",100%
same,pest or weed control at 125 g/ha,"[2]; post-emergence, Postemergence, 0 to 100 scale, 0 is no effect, 100 is complete control, read-out: Crabgrass, Large plant response rating",90%
same,pest or weed control at 500 g/ha,"[2]; post-emergence, Postemergence, visual rating on 0 to 100 scale (0 no effect, 100 complete control), approximately ten days, read-out: Crabgrass, Large plant response rating",90%
same,pest or weed control at 125 g/ha,"[2]; pre-emergence, Preemergence, 0 to 100 scale where 0 is no effect and 100 is complete control, read-out: Plant response rating, Crabgrass, Large",100%
same,pest or weed control at 500 g/ha,"[2]; pre-emergence, Preemergence, 0 to 100 scale (0 no effect, 100 complete control), read-out: Plant response rating, Crabgrass, Large",100%
same,"Plant response rating, Soybean",soybean (Glycine max); [10],20
same,"Plant response rating, Soybean",soybean (Glycine max); [11],40
same,"Plant response rating, Soybean",soybean (Glycine max); [12],70
same,"Plant response rating, Soybean",soybean (Glycine max); [13],75
same,"Plant response rating, Soybean",soybean (Glycine max); [14],0
same,"Plant response rating, Soybean",soybean (Glycine max); [15],0
same,"Plant response rating, Soybean",soybean (Glycine max); [16],10
same,"Plant response rating, Soybean",soybean (Glycine max); [17],40
same,"Plant response rating, Blackgrass",[3]; [10],40
same,"Plant response rating, Blackgrass",[3]; [11],60
same,"Plant response rating, Blackgrass",[3]; [12],70
same,"Plant response rating, Blackgrass",[3]; [13],80
same,"Plant response rating, Blackgrass",[3]; [14],90
same,"Plant response rating, Blackgrass",[3]; [18],90
same,"Plant response rating, Blackgrass",[3]; [16],90
same,"Plant response rating, Blackgrass",[3]; [17],90
same,"Plant response rating, Nutsedge, Yellow",[4]; [10],0
same,"Plant response rating, Nutsedge, Yellow",[4]; [11],0
same,"Plant response rating, Nutsedge, Yellow",[4]; [12],0
same,"Plant response rating, Nutsedge, Yellow",[4]; [13],0
same,"Plant response rating, Nutsedge, Yellow",[4]; [14],0
same,"Plant response rating, Nutsedge, Yellow",[4]; [15],0
same,"Plant response rating, Nutsedge, Yellow",[4]; [16],0
same,"Plant response rating, Nutsedge, Yellow",[4]; [17],5
same,"Plant response rating, Wheat",[5]; [10],20
same,"Plant response rating, Wheat",[5]; [11],25
same,"Plant response rating, Wheat",[5]; [12],30
same,"Plant response rating, Wheat",[5]; [13],40
same,"Plant response rating, Wheat",[5]; [14],0
same,"Plant response rating, Wheat",[5]; [15],20
same,"Plant response rating, Wheat",[5]; [16],30
same,"Plant response rating, Wheat",[5]; [17],60
same,"Plant response rating, Ragweed",[6]; [10],40
same,"Plant response rating, Ragweed",[6]; [11],40
same,"Plant response rating, Ragweed",[6]; [12],45
same,"Plant response rating, Ragweed",[6]; [13],45
same,"Plant response rating, Ragweed",[6]; [14],0
same,"Plant response rating, Ragweed",[6]; [15],0
same,"Plant response rating, Ragweed",[6]; [16],0
same,"Plant response rating, Ragweed",[6]; [17],55
same,"Plant response rating, Johnsongrass",[7]; [10],5
same,"Plant response rating, Johnsongrass",[7]; [11],15
same,"Plant response rating, Johnsongrass",[7]; [12],15
same,"Plant response rating, Johnsongrass",[7]; [13],70
same,"Plant response rating, Johnsongrass",[7]; [14],25
same,"Plant response rating, Johnsongrass",[7]; [15],75
same,"Plant response rating, Johnsongrass",[7]; [16],85
same,"Plant response rating, Johnsongrass",[7]; [17],95
same,pest or weed control at 125 g/ha,"[8]; post-emergence, Postemergence, 0 to 100 scale, 0 is no effect, 100 is complete control, read-out: Foxtail, Giant plant response rating",90%
same,pest or weed control at 500 g/ha,"[8]; post-emergence, Postemergence, visual rating on 0 to 100 scale (0 no effect, 100 complete control), approximately ten days, read-out: Foxtail, Giant plant response rating",90%
same,pest or weed control at 125 g/ha,"[8]; pre-emergence, Preemergence, 0 to 100 scale where 0 is no effect and 100 is complete control, read-out: Plant response rating, Foxtail, Giant",100%
same,pest or weed control at 500 g/ha,"[8]; pre-emergence, Preemergence, 0 to 100 scale (0 no effect, 100 complete control), read-out: Plant response rating, Foxtail, Giant",100%
same,"Plant response rating, Crabgrass, Large",[9]; [10],20
same,"Plant response rating, Crabgrass, Large",[9]; [11],45
same,"Plant response rating, Crabgrass, Large",[9]; [12],65
same,"Plant response rating, Crabgrass, Large",[9]; [13],85
same,"Plant response rating, Crabgrass, Large",[9]; [14],98
same,"Plant response rating, Crabgrass, Large",[9]; [15],100
same,"Plant response rating, Crabgrass, Large",[9]; [16],100
same,"Plant response rating, Crabgrass, Large",[9]; [17],100
same,"Plant response rating, Corn",corn (Zea mays); [10],10
same,"Plant response rating, Corn",corn (Zea mays); [11],15
same,"Plant response rating, Corn",corn (Zea mays); [12],40
same,"Plant response rating, Corn",corn (Zea mays); [13],65
same,"Plant response rating, Corn",corn (Zea mays); [14],0
same,"Plant response rating, Corn",corn (Zea mays); [18],10
same,"Plant response rating, Corn",corn (Zea mays); [16],45
same,"Plant response rating, Corn",corn (Zea mays); [17],65
